Results from US10196346B2, “Substituted acethydrazide derivative, preparation method and use thereof” (Institute of Pharmacology and Toxicology Academy of …, priority 2014, dated 2019).

Each compound was assayed against EGFP-HIF-1α fusion protein (Homo sapiens (Human), UniProt Q16665) (assay: Stabilization of HIF-1α in EGFP-HIF-1α-CHOhIR cell model (nuclear EGFP fluorescence imaging)). Conditions: CHOhIR cells stably expressing EGFP-HIF-1α; 3 h incubation; 0.03-30 μM; bipyridine 100 μM = 100% activation; read-out: Effects in stabilization of HIF-1α activity (EC50).
Type: cell-based
Protocol: CHOhIR cells (purchased from Thermo Fisher Scientific) which stably expressed EGFP-HIF-1α fusion protein were cultured under 37° C. and 5% CO2 in F12 culture solution containing 0.5 mg/ml G418 and 10% FBS, transplanted in an amount of 0.8×10^4 cells/100 μl/well on a 96-well culture plate that could be subjected to fluorescence detection, and cultured under 37° C. and 5% CO2 for 18-24 h. […] After the cells were incubated under 37° C. and 5% CO2 for 3 h, 12% formaldehyde in amount of 100 μl/well was added, fixation was carried out at room temperature for 30 min. Culture media was discarded, and the plate was washed with PBS twice, PBS containing 1 μM Hoechst was used, staining was performed at room temperature for 1 h. Detection was performed by IN Cell Analyzer 1000 live cell imaging system. Detection conditions were: 20× objective lens, excitation wavelength Ex=460 nm, emission wavelength […] to detect blue-fluorescence of cell nucleus passage; excitation wavelength Ex=475 nm, emission wavelength Em=535 nm, exposure 500 ms to detect green-fluorescence EGFP of cytoplasm passage, and pictures were taken continuously in 5 fields of view for each well. IN Cell Analyzer 1000 Multitarget Analysis Module of GE Company was used for analyzing aggregation of green-fluorescence of HIF-1α in cell nucleus, and BP100 μM treatment group was used as 100% activation of HIF-1α.

| EC50 | SMILES |
| --- | --- |
| 2290 ± 270 nM | COc1cccc(/C=N/NC(=O)CN(C)CCN(C)Cc2cccc3ccccc23)c1O [Example 1, (E)-N′-(3-methoxy-2-hydroxybenzal)-2-{N-{2-[N-(naphthalen-1-yl-methylene)-N-methylamino]ethyl}N-methylamino}acethydrazide] |
| 17800 ± 4810 nM | CN(CCN(C)Cc1cccc2ccccc12)CC(=O)N/N=C/c1cc(C(C)(C)C)cc(C(C)(C)C)c1O [Example 2, (E)-N′-(3,5-di-tert-butyl-2-hydroxybenzal)-2-{N-{2-[N-(naphthalen-1-yl-methylene)-N-methylamino]ethyl}N-methylamino}acethydrazide] |
| 2110 ± 850 nM | CCOc1cccc(/C=N/NC(=O)CN(C)CCN(C)Cc2cccc3ccccc23)c1O [Example 3, (E)-N′-(3-ethoxy-2-hydroxybenzal)-2-{N-{2-[N-(naphthalen-1-yl-methylene)-N-methylamino]ethyl}N-methylamino}acethydrazide] |
| 830 ± 180 nM | CN(CCN(C)Cc1cccc2ccccc12)CC(=O)N/N=C/c1c(O)ccc2ccccc12 [Example 4, (E)-N′-[(2-hydroxynaphthalen-1-yl)methylene]-2-{N-{2-[N-(naphthalen-1-yl-methylene)-N-methylamino]ethyl}N-methylamino}acethydrazide] |
| 780 ± 140 nM | CCN(CC)c1ccc(/C=N/NC(=O)CN(C)CCN(C)Cc2cccc3ccccc23)c(O)c1 [Example 5, (E)-N′-(4-N,N-diethylamino-2-hydroxybenzal)-2-{N-{2-[N-(naphthalen-1-yl-methylene)-N-methylamino]ethyl}N-methylamino}acethydrazide] |
| 5230 ± 1390 nM | CN(CCN(C)Cc1cccc(C(F)(F)F)c1)CC(=O)N/N=C/c1cc(C(C)(C)C)cc(C(C)(C)C)c1O [Example 8, (E)-N′-(3,5-di-tert-butyl-2-hydroxybenzal)-2-{N-{2-[N-(3-trifluoromethylbenzyl)-N-methylamino]ethyl}N-methylamino}acethydrazide] |
| 600 ± 180 nM | CCN(CC)c1ccc(/C=N/NC(=O)CN(C)CCN(C)Cc2cccc(C(F)(F)F)c2)c(O)c1 [Example 10, (E)-N′-(4-N,N-diethylamino-2-hydroxybenzal)-2-{N-{2-[N-(3-trifluoromethylbenzyl)-N-methylamino]ethyl}N-methylamino}acethydrazide] |
| 170 ± 40 nM | CN(CCN(C)Cc1cccc(C(F)(F)F)c1)CC(=O)N/N=C/c1cccc(O)c1O [Example 11, (E)-N′-(2,3-dihydroxybenzal)-2-{N-{2-[N-(3-trifluoromethylbenzyl)-N-methylamino]ethyl}N-methylamino}acethydrazide] |
| 800 ± 190 nM | CCOc1cccc(/C=N/NC(=O)CN(C)CCN(C)Cc2ccc(C(C)C)cc2)c1O [Example 13, (E)-N′-[(3-ethoxy-2-hydroxybenzal)methylene]-2-{N-{2-[N-(4-isopropylbenzyl)-N-methylamino]ethyl}N-methylamino}acethydrazide] |
| 1020 ± 340 nM | CC(C)c1ccc(CN(C)CCN(C)CC(=O)N/N=C/c2c(O)ccc3ccccc23)cc1 [Example 14, (E)-N′-[(2-hydroxynaphthalen-1-yl)methylene]-2-{N-{2-[N-(4-isopropylbenzyl)-N-methylamino]ethyl}N-methylamino}acethydrazide] |
| 11200 ± 2870 nM | CC(C)c1ccc(CN(C)CCN(C)CC(=O)N/N=C/c2cc(C(C)(C)C)cc(C(C)(C)C)c2O)cc1 [Example 15, (E)-N′-(3,5-di-tert-butyl-2-hydroxybenzal)-2-{N-{2-[N-(4-isopropylbenzyl)-N-methylamino]ethyl}N-methylamino}acethydrazide] |
| 560 ± 150 nM | CC(C)c1ccc(CN(C)CCN(C)CC(=O)N/N=C/c2cccc(O)c2O)cc1 [Example 17, (E)-N′-(2,3-dihydroxybenzal)-2-{N-{2-[N-(4-isopropylbenzyl)-N-methylamino]ethyl}N-methylamino}acethydrazide] |
| 2280 ± 670 nM | CC(C)c1ccc(CN(C)CCN(C)CC(=O)N/N=C/c2cc(Br)ccc2O)cc1 [Example 18, (E)-N′-(3-bromo-6-hydroxybenzal)-2-{N-{2-[N-(4-isopropylbenzyl)-N-methylamino]ethyl}N-methylamino}acethydrazide] |
| 2770 ± 310 nM | COc1cccc(CN(C)CCN(C)CC(=O)N/N=C/c2cc(C(C)(C)C)cc(C(C)(C)C)c2O)c1 [Example 22, (E)-N′-(3,5-di-tert-butyl-2-hydroxybenzal)-2-{N-{2-[N-(3-methoxybenzyl)-N-methylamino]ethyl}N-methylamino}acethydrazide] |
| 760 ± 150 nM | CCN(CC)c1ccc(/C=N/NC(=O)CN(C)CCN(C)Cc2cccc(OC)c2)c(O)c1 [Example 23, (E)-N′-(4-N,N-diethylamino-2-hydroxybenzal)-2-{N-{2-[N-(3-methoxybenzyl)-N-methylamino]ethyl}N-methylamino}acethydrazide] |
| 820 ± 90 nM | COc1cccc(CN(C)CCN(C)CC(=O)N/N=C/c2cccc(O)c2O)c1 [Example 24, (E)-N′-(2,3-dihydroxybenzal)-2-{N-{2-[N-(3-methoxybenzyl)-N-methylamino]ethyl}N-methylamino}acethydrazide] |
| 7190 ± 1270 nM | COc1cccc(CN(C)CCN(C)CC(=O)N/N=C/c2cc(Br)ccc2O)c1 [Example 25, (E)-N′-(3-bromo-6-hydroxybenzal)-2-{N-{2-[N-(3-methoxybenzyl)-N-methylamino]ethyl}N-methylamino}acethydrazide] |
| 980 ± 100 nM | CN(CCN(C)Cc1ccc(C#N)cc1)CC(=O)N/N=C/c1c(O)ccc2ccccc12 [Example 26, (E)-N′-[(2-hydroxynaphthalen-1-yl)methylene]-2-{N-{2-[N-(4-cyanobenzyl)-N-methylamino]ethyl}N-methylamino}acethydrazide] |
| 7750 ± 1330 nM | CN(CCN(C)Cc1ccc(C#N)cc1)CC(=O)N/N=C/c1cc(C(C)(C)C)cc(C(C)(C)C)c1O [Example 27, (E)-N′-(3,5-di-tert-butyl-2-hydroxybenzal)-2-{N-{2-[N-(4-cyanobenzyl)-N-methylamino]ethyl}N-methylamino}acethydrazide] |
| 8420 ± 3150 nM | COc1cccc(/C=N/NC(=O)CN(C)CCN(C)Cc2ccc(C#N)cc2)c1O [Example 28, (E)-N′-(3-methoxy-2-hydroxybenzal)-2-{N-{2-[N-(4-cyanobenzyl)-N-methylamino]ethyl}N-methylamino}acethydrazide] |
| 2770 ± 390 nM | CCOc1cccc(/C=N/NC(=O)CN(C)CCN(C)Cc2ccc(C#N)cc2)c1O [Example 29, (E)-N′-(3-ethoxy-2-hydroxybenzal)-2-{N-{2-[N-(4-cyanobenzyl)-N-methylamino]ethyl}N-methylamino}acethydrazide] |
| 530 ± 20 nM | CCN(CC)c1ccc(/C=N/NC(=O)CN(C)CCN(C)Cc2ccc(C#N)cc2)c(O)c1 [Example 30, (E)-N′-(4-N,N-diethylamino-2-hydroxybenzal)-2-{N-{2-[N-(4-cyanobenzyl)-N-methylamino]ethyl}N-methylamino}acethydrazide] |
| 2760 ± 780 nM | COc1cccc(/C=N/NC(=O)CN(C)CCN(C)Cc2ccc(C(C)(C)C)cc2)c1O [Example 31, (E)-N′-(3-methoxy-2-hydroxybenzal)-2-{N-{2-[N-(4-tert-butylbenzyl)-N-methylamino]ethyl}N-methylamino}acethydrazide] |
| 1860 ± 570 nM | CCOc1cccc(/C=N/NC(=O)CN(C)CCN(C)Cc2ccc(C(C)(C)C)cc2)c1O [Example 32, (E)-N′-(3-ethoxy-2-hydroxybenzal)-2-{N-{2-[N-(4-tert-butylbenzyl)-N-methylamino]ethyl}N-methylamino}acethydrazide] |
| 130 ± 20 nM | CCN(CC)c1ccc(/C=N/NC(=O)CN(C)CCCN(C)Cc2ccc(C(C)(C)C)cc2)c(O)c1 [Example 33, (E)-N′-(4-N,N-diethylamino-2-hydroxybenzal)-2-{N-{3-[N-(4-tert-butylbenzyl)-N-methylamino]propyl}N-methylamino}acethydrazide] |
